Data published in patent US9839642B2, “Beta-tetrazolyl-propionic acids as metallo-beta-lactamase inhibitors” (priority 2014, dated 2017).
Read-outs that look alike come from different tables or passages of the source.

Experiments:
[1] = test system: Klebsiella pneumoniae expressing VIM-1 (IHMA599644); experiment: Antibiotic potentiation activity: synergistic concentration (MITC95) with imipenem, growth by OD600; type: cell-based; conditions: 95% inhibition of bacterial growth, strain IHMA599644
How it was run: (§1)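 Colonies from overnight agar plates (35 °C) were suspended in saline and diluted 1:100 into 1.1× CAMHB. Inhibitor (final 200 μM to 0.195 μM) was combined with imipenem at 1 or 4 μg/ml, incubated 22–24 h at 35 °C, and absorbance read; MITC95 is the lowest inhibitor concentration giving 95% growth inhibition.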

[2] = test system: Serratia marcescens expressing IMP-1 (CL5741); experiment: as above; type: cell-based; conditions: 95% inhibition of bacterial growth, strain CL5741
How it was run: as §1

[3] = test system: Escherichia coli expressing NDM-1 (CLB30016); experiment: as above; type: cell-based; conditions: 95% inhibition of bacterial growth, strain CLB30016
How it was run: as §1

VIM-1 = VIM-1 (Pseudomonas aeruginosa, UniProt A0A0F7KYQ8); experiment: Enzyme activity: determination of IC50, fluorescence assay with CCF2-FA substrate; type: biochemical; conditions: enzyme 30 pM, CCF2-FA 1.25 μM, 2 hours at 25° C.; read-out: VIM1 IC50
How it was run: (§2)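 Enzyme at 1 pM (NDM-1), 2 pM (IMP-1) or 30 pM (VIM-1) was incubated with inhibitor (20 μM to 0.00063 μM) and 1.25 μM CCF2-FA in 100 mM KH2PO4 pH 7, 0.005% Tween-20, 10 μM ZnSO4 for 2 hours at 25° C. Fluorescence was read at ex 405/em 460 nm; IC50 from 4-parameter fit.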

IMP-1 = IMP-1 (Serratia marcescens, UniProt P52699); experiment: as above; type: biochemical; conditions: enzyme 2 pM, CCF2-FA 1.25 μM, 2 hours at 25° C.; read-out: IMP1 IC50
Chain of IMP-1 (P52699 19-246, looked up, species assumed): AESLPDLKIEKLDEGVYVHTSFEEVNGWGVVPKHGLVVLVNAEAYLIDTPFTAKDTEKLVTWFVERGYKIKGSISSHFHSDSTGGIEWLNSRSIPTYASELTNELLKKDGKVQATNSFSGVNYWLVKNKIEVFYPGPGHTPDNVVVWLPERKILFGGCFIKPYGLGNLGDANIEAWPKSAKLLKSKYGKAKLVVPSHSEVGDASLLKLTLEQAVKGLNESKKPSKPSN
How it was run: as §2

NDM-1 = NDM-1 (Klebsiella pneumoniae, UniProt C7C422); experiment: as above; type: biochemical; conditions: CCF2-FA 1.25 μM, 2 hours at 25° C.
Chain of NDM-1 (C7C422 29-270, looked up, species assumed): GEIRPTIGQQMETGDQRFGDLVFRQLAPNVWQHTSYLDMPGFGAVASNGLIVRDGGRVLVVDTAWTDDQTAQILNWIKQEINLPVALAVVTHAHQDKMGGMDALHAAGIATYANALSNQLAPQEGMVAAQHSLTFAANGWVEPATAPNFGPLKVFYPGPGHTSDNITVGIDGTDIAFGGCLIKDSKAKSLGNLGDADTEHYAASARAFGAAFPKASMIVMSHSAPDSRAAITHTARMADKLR
How it was run: as §2

[4] = enzyme 1 pM, read-out: NDM1 IC50

SMILES	VIM1 KP599644 MITC95 [1]	IMP1 SM5741 MITC95 [2]	NDM1 EC30016 MITC95 [3]	IC50 (VIM-1)	IC50 (IMP-1)	IC50 (NDM-1; [4])	IC50 (NDM-1; NDM1 IC50, enzyme 1 pM)
CCC[C@H](C(=O)O)[C@H](Cc1ccc(-c2ccc3c(c2)OCC(=O)N3)cn1)c1nnn[nH]1 [Example 169, (2S)-2-[(1S)-2-[5-(3-oxo-3,4-dihydro-2H-1,4-benzoxazin-7-yl)pyridin-2-yl]-1-(1H-tetrazol-5-yl)ethyl]pentanoic acid]	200 µM	100 µM	18.8 µM	38 nM	1600 nM	88 nM	–
CC(C)C[C@H](C(=O)O)[C@H](Cc1ccc(C2=CCNCC2)cn1)c1nn[nH]n1 [Example 170, (2S)-4-methyl-2-[(1S)-2-(1′,2′,3′,6′-tetrahydro-3,4′-bipyridin-6-yl)-1-(2H-tetrazol-5-yl)ethyl]pentanoic acid]	12.5 µM	50 µM	1.6 µM	22 nM	3600 nM	–	250 nM
CC(C)C[C@H](C(=O)O)[C@H](Cc1ccc(-c2ccc(CO)cc2)cn1)c1nn[nH]n1 [Example 171, (2S)-2-[(1S)-2-{5-[4-(hydroxymethyl)phenyl]pyridin-2-yl}-1-(2H-tetrazol-5-yl)ethyl]-4-methylpentanoic acid]	200 µM	62 µM	75 µM	56 nM	740 nM	47 nM	–
CC(C)C[C@H](C(=O)O)[C@H](Cc1ccc(-c2ccc(N)nc2)cn1)c1nn[nH]n1 [Example 172, (2S)-2-[(1S)-2-(6′-amino-3,3′-bipyridin-6-yl)-1-(2H-tetrazol-5-yl)ethyl]-4-methylpentanoic acid]	50 µM	38 µM	12.5 µM	49 nM	800 nM	52 nM	–
CC(C)C[C@H](C(=O)O)[C@H](Cc1ccc(-c2ccc([C@@H]3OC(=O)N[C@@H]3C)cc2)cn1)c1nn[nH]n1 [Example 173, (2S)-4-methyl-2-[(1S)-2-(5-{4-[(4R,5S)-4-methyl-2-oxo-1,3-oxazolidin-5-yl]phenyl}pyridin-2-yl)-1-(2H-tetrazol-5-yl)ethyl]pentanoic acid]	>200 µM	31 µM	25 µM	110 nM	500 nM	27 nM	–
CC(C)C[C@H](C(=O)O)[C@H](Cc1ccc(-c2ccc(CN)cc2)cn1)c1nn[nH]n1 [Example 174, (2S)-2-[(1S)-2-{5-[4-(aminomethyl)phenyl]pyridin-2-yl}-1-(2H-tetrazol-5-yl)ethyl]-4-methylpentanoic acid]	25 µM	50 µM	9.4 µM	110 nM	2700 nM	240 nM	–
CC(C)C[C@H](C(=O)O)[C@H](Cc1ccc(-c2ccc(S(N)(=O)=O)cc2)cn1)c1nn[nH]n1 [Example 175, (2S)-4-methyl-2-[(1S)-2-[5-(4-sulfamoylphenyl)pyridin-2-yl]-1-(2H-tetrazol-5-yl)ethyl]pentanoic acid]	50 µM	75 µM	18.8 µM	12 nM	840 nM	19 nM	–
CC(C)C[C@H](C(=O)O)[C@H](Cc1ccc(-c2ccc(N)nc2)nc1)c1nn[nH]n1 [Example 176, (2S)-2-[(1S)-2-(6′-amino-2,3′-bipyridin-5-yl)-1-(2H-tetrazol-5-yl)ethyl]-4-methylpentanoic acid]	25 µM	6.2 µM	16 µM	5.7 nM	150 nM	25 nM	–
CC(C)C[C@H](C(=O)O)[C@H](Cc1ccc(-c2ccc(CO)cc2)nc1)c1nn[nH]n1 [Example 177, (2S)-2-[(1S)-2-{6-[4-(hydroxymethyl)phenyl]pyridin-3-yl}-1-(2H-tetrazol-5-yl)ethyl]-4-methylpentanoic acid]	38 µM	4.7 µM	12.5 µM	5.1 nM	140 nM	40 nM	–
CC(C)C[C@H](C(=O)O)[C@H](Cc1ccc(-c2ccnc(N)c2)nc1)c1nn[nH]n1 [Example 178, (2S)-2-[(1S)-2-(2′-amino-2,4′-bipyridin-5-yl)-1-(2H-tetrazol-5-yl)ethyl]-4-methylpentanoic acid]	25 µM	12.5 µM	9.4 µM	2.4 nM	390 nM	43 nM	–
CC(C)C[C@H](C(=O)O)[C@H](Cc1ccc(-c2ccnc(N)c2)cn1)c1nn[nH]n1 [Example 179, (2S)-2-[(1S)-2-(2′-amino-3,4′-bipyridin-6-yl)-1-(2H-tetrazol-5-yl)ethyl]-4-methylpentanoic acid]	50 µM	38 µM	12.5 µM	24 nM	1300 nM	66 nM	–
CC(C)C[C@H](C(=O)O)[C@H](Cc1ccc(-c2ccc3c(c2)OCC(=O)N3)nc1)c1nn[nH]n1 [Example 180, (2S)-4-methyl-2-[(1S)-2-[6-(3-oxo-3,4-dihydro-2H-1,4-benzoxazin-7-yl)pyridin-3-yl]-1-(2H-tetrazol-5-yl)ethyl]pentanoic acid]	50 µM	3.1 µM	25 µM	1.7 nM	130 nM	17 nM	–
CC(C)C[C@H](C(=O)O)[C@H](Cc1ccc(C2=CCNC2)nc1)c1nn[nH]n1 [Example 181, (2S)-2-[(1S)-2-[6-(2,5-dihydro-1H-pyrrol-3-yl)pyridin-3-yl]-1-(2H-tetrazol-5-yl)ethyl]-4-methylpentanoic acid]	75 µM	100 µM	38 µM	17 nM	4400 nM	1000 nM	–
CCC[C@H](C(=O)O)[C@@H](Cc1ccc(-c2ccc3c(c2)OCC(=O)N3)cn1)c1nnn[nH]1 [Example 182, (2S)-2-[(1R)-2-[5-(3-oxo-3,4-dihydro-2H-1,4-benzoxazin-7-yl)pyridin-2-yl]-1-(1H-tetrazol-5-yl)ethyl]pentanoic acid]	>200 µM	>200 µM	150 µM	330 nM	16000 nM	1000 nM	–
CCC[C@H](C(=O)O)[C@H](Cc1ccc(NCC2CCCN2CC)cc1)c1nn[nH]n1 (stereo partly drawn) [Example 215, (2S)-2-[(1S)-2-(4-{[(1-ethylpyrrolidin-2-yl)methyl]amino}phenyl)-1-(2H-tetrazol-5-yl)ethyl]pentanoic acid]	50 µM	18.8 µM	12.5 µM	29 nM	1100 nM	170 nM	–
CCC[C@H](C(=O)O)[C@H](Cc1ccc(NCCN2CCOCC2)cc1)c1nn[nH]n1 [Example 216, (2S)-2-[(1S)-2-{4-[(2-morpholin-4-ylethyl)amino]phenyl}-1-(2H-tetrazol-5-yl)ethyl]pentanoic acid]	150 µM	18.8 µM	31 µM	110 nM	490 nM	140 nM	–
